The results in this text go back to patent US20230000773A1, “NOVEL HEADGROUP LIPID COMPOUNDS AND COMPOSITIONS FOR INTRACELLULAR DELIVERY OF THERAPEUTIC AGENTS” (ModernaTX, Inc., priority 2019, published 2023).

The nature of series [1]: Apparent LNP pKa by 2-(p-toluidino)-6-napthalene sulfonic acid (TNS) assay. The note with it: pH at half of maximum fluorescence. It is filed as physicochemical.
Series [2] can be described thus: Heparin-sepharose binding of nanoparticles.
The nature of series [3]: Encapsulation efficiency (% EE), ribogreen. The class given is physicochemical. The note with it: nanoparticles, compound:DSPC:cholesterol:PEG 2 50:10:38:2 mol %. An excerpt: The efficiency of encapsulation of a therapeutic and/or prophylactic describes the amount of therapeutic and/or prophylactic that is encapsulated or otherwise associated with a lipid nanoparticle (e.g., an empty LNP or a loaded LNP) after preparation, relative to the initial amount provided. The encapsulation efficiency is desirably high (e.g., close to 100%). The encapsulation efficiency may be measured, for example, by comparing the amount of therapeutic and/or prophylactic in a solution containing the lipid nanoparticle (e.g., an empty LNP or a loaded LNP) before and after breaking up the lipid nanoparticle (e.g., an empty LNP or a loaded LNP) with one or more organic solvents or detergents. Fluorescence may be used to measure the amount of free therapeutic and/or prophylactic (e.g., RNA) in a solution.
(§1) Nanoparticle compositions including a therapeutic and/or prophylactic can be optimized according to the selection of a compound according to Formula (I), (I-1), (A), (A-1), (A-1a), or (A-1b), the selection of additional lipids, the amount of each lipid in the lipid component, and the wt:wt ratio of the lipid component to the therapeutic and/or prophylactic. Nanoparticle compositions including DSPC as a phospholipid, cholesterol as a structural lipid, PEG 2 as a PEG lipid, and a compound according to Formula (I), (I-1), (A), (A-1), (A-1a), or (A-1b) were prepared. The ratios of the lipids were 50:10:38:2 mol % for the lipid according to Formula (I), (I-1), (A), (A-1), (A-1a), or (A-1b):DSPC:cholesterol:PEG 2. […]

Series [4] can be described thus: Surface hydrophobicity by Generalized Polarization by Laurdan (GPL). It is filed as physicochemical. The settings on record: normalized Generalized Polarization by Laurdan; higher N-GP = less polar surface. An excerpt: Nanoparticle compositions including a therapeutic and/or prophylactic can be optimized according to the selection of a compound according to Formula (I), (I-1), (A), (A-1), (A-1a), or (A-1b), the selection of additional lipids, the amount of each lipid in the lipid component, and the wt:wt ratio of the lipid component to the therapeutic and/or prophylactic. Nanoparticle compositions including DSPC as a phospholipid, cholesterol as a structural lipid, PEG 2 as a PEG lipid, and a compound according to Formula (I), (I-1), (A), (A-1), (A-1a), or (A-1b) were prepared. The ratios of the lipids were 50:10:38:2 mol % for the lipid according to Formula (I), (I-1), (A), (A-1), (A-1a), or (A-1b):DSPC:cholesterol:PEG 2.
Laurdan, a fluorescent aminonaphthalene ketone lipid, was post-inserted into the nanoparticle surface and the fluorescence spectrum of Laurdan was collected to determine the normalized Generalized Polarization (N-GP). Higher N-GP indicates a less polar surface.

Series [5] is described as follows: Size and polydispersity index of nanoparticles comprising compounds of the disclosure. The class given is physicochemical. The settings on record: compound:DSPC:cholesterol:PEG 2 50:10:38:2 mol %.
Text: Lipid nanoparticles (e.g., empty LNPs or loaded LNPs) may be characterized by a variety of methods. For example, microscopy (e.g., transmission electron microscopy or scanning electron microscopy) may be used to examine the morphology and size distribution of a nanoparticle composition. Dynamic light scattering or potentiometry (e.g., potentiometric titrations) may be used to measure zeta potentials. Dynamic light scattering may also be utilized to determine particle sizes. Instruments such as the Zetasizer Nano ZS (Malvern Instruments Ltd, Malvern, Worcestershire, UK) may also be used to measure multiple characteristics of a nanoparticle composition, such as particle size, polydispersity index, and zeta potential.
as §1

A further series has as its system hEPO mRNA. As to the kind of experiment: hEPO expression in CD1-mice after intravenous administration of nanoparticles. The class given is in vivo. The settings on record: 6 h after intravenous administration, mRNA dose 0.5 mg/kg, N:P 3.4, compound:DSPC:cholesterol:PEG 2 50:10:38:2. The protocol:
The expression of hEPO mRNA in CD1-mice was measured 6 h after intravenous administration of nanoparticles comprising a compound of the disclosure, DSPC, cholesterol, and PEG 2 in a ratio of 50:10:38:2. […] Each composition was dosed to 8 animals at an mRNA dose of 0.5 mg/kg.

Take `CCCCCCCCC(CC)OC(=O)CCCCCCCN(CCCCCCCC(=O)OC(CCCCCCCC)CCCCCCCC)CCCNC(=S)C1(C)CC1` (stereo not shown) [Compound 61, Heptadecan-9-yl 8-((3-(1-methylcyclopropane-1-carbothioamido)propyl)(8-oxo-8-(undecan-3-yloxy)octyl)amino)octanoate]: the “LogIC50 (pKa)” value in series [1] was 5.95. Moreover, the “Relative % Area Bound by LNP” value in series [2] came out at 1.73%. Also, the “% EE (ribogreen)” value in series [3] was determined as 49.1%. For the same compound, the “Average N-GP” value in series [4] was 0.900. Moreover, in series [5], the PDI came out at 0.375 and the “Size (nm)” value worked out at 79.6 nm. Besides, the “Avg. [hEPO] mIU/mL” value in the series with hEPO mRNA turned out to be 1.52E+03 mIU/mL.

`CCCCCCCCC(CC)OC(=O)CCCCCCCN(CCCCCCCC(=O)OC(CCCCCCCC)CCCCCCCC)CCCNc1cc[nH]c(=O)n1` (stereo not shown) [Compound 21, Heptadecan-9-yl 8-((3-((2-oxo-1,2-dihydropyrimidin-4-yl)amino)propyl)(8-oxo-8-(undecan-3-yloxy)octyl)amino)octanoate]: the “LogIC50 (pKa)” value in series [1] is 7.59. The “Relative % Area Bound by LNP” value in series [2] is 50.19%. Moreover, the “% EE (ribogreen)” value in series [3] was 99.4%. Besides, in series [5], the PDI turned out to be 0.141 and the “Size (nm)” value was 62.5 nm. Further, in the series with hEPO mRNA, the “Avg. [hEPO] mIU/mL” value came to 7.04E+04 mIU/mL.

As to `CCCCCCCCC(CC)OC(=O)CCCCCCCN(CCCCCCCC(=O)OC(CCCCCCCC)CCCCCCCC)CCCNC(=O)C(=O)NC` (stereo not shown) [Compound 12, Heptadecan-9-yl 8-((3-(2-(methylamino)-2-oxoacetamido)propyl)(8-oxo-8-(undecan-3-yloxy)octyl)amino)octanoate], the “LogIC50 (pKa)” value in series [1] stood at 6.13. In series [2], the “Relative % Area Bound by LNP” value was 1.43%. The “% EE (ribogreen)” value in series [3] is listed as 85.0%. In series [5], the PDI came out at 0.139 and the “Size (nm)” value is 78.9 nm. Also, the “Avg. [hEPO] mIU/mL” value in the series with hEPO mRNA turned out to be 2.29E+05 mIU/mL.

Consider `CCCCCCCCC(CC)OC(=O)CCCCCCCN(CCCCCCCC(=O)OC(CCCCCCCC)CCCCCCCC)CCCNc1nc2[nH]cnc2c(=O)[nH]1` (stereo not shown) [Compound 29, Heptadecan-9-yl 8-((3-((6-oxo-6,9-dihydro-1H-purin-2-yl)amino)propyl)(8-oxo-8-(undecan-3-yloxy)octyl)amino)octanoate], for which the “LogIC50 (pKa)” value in series [1] was found to be 6.68. Also, the “Relative % Area Bound by LNP” value in series [2] was 6.45%. In addition, the “% EE (ribogreen)” value in series [3] came out at 98.9%. In series [5], the PDI is reported as 0.199 and the “Size (nm)” value amounted to 63.5 nm. Besides, in the series on hEPO mRNA, the “Avg. [hEPO] mIU/mL” value was determined as 8.93E+04 mIU/mL.

With `CCCCCCCCC(CC)OC(=O)CCCCCCCN(CCCCCCCC(=O)OC(CCCCCCCC)CCCCCCCC)CCCNC(C(N)=O)C(N)=O` (stereo not shown) [Compound 14, Heptadecan-9-yl 8-((3-((1,3-diamino-1,3-dioxopropan-2-yl)amino)propyl)(8-oxo-8-(undecan-3-yloxy)octyl)amino)octanoate], the “LogIC50 (pKa)” value in series [1] amounted to 7.20. Moreover, in series [2], the “Relative % Area Bound by LNP” value came out at 69.04%. Further, the “% EE (ribogreen)” value in series [3] is listed as 98.9%. Further, in series [5], the PDI was determined as 0.167 and the “Size (nm)” value is given as 91.2 nm. For the same compound, in the series with hEPO mRNA, the “Avg. [hEPO] mIU/mL” value is 6.20E+04 mIU/mL.

Regarding `CCCCCCCCC(CC)OC(=O)CCCCCCCN(CCCCCCCC(=O)OC(CCCCCCCC)CCCCCCCC)CCCNc1cc(=O)[nH]c(=O)[nH]1` (stereo not shown) [Compound 24, Heptadecan-9-yl 8-((3-((2,6-dioxo-1,2,3,6-tetrahydropyrimidin-4-yl)amino)propyl)(8-oxo-8-(undecan-3-yloxy)octyl)amino)octanoate], in series [1], the “LogIC50 (pKa)” value was 6.56. In addition, the “Relative % Area Bound by LNP” value in series [2] is on record as 0%. In addition, the “% EE (ribogreen)” value in series [3] came out at 98.8%. In series [5], the PDI was determined as 0.114 and the “Size (nm)” value is listed as 60.8 nm. For the same compound, the “Avg. [hEPO] mIU/mL” value in the series on hEPO mRNA is 2.05E+05 mIU/mL.

As for `CCCCCCCCC(CC)OC(=O)CCCCCCCN(CCCCCCCC(=O)OC(CCCCCCCC)CCCCCCCC)CCCNc1noc(N)n1` (stereo not shown) [Compound 50, Heptadecan-9-yl 8-((3-((5-amino-1,2,4-oxadiazol-3-yl)amino)propyl)(8-oxo-8-(undecan-3-yloxy)octyl)amino)octanoate], the “LogIC50 (pKa)” value in series [1] is listed as 6.09. The “Relative % Area Bound by LNP” value in series [2] worked out at 0%. For the same compound, the “% EE (ribogreen)” value in series [3] was 98.1%. For the same compound, in series [5], the PDI came to 0.18 and the “Size (nm)” value came out at 69.8 nm. The “Avg. [hEPO] mIU/mL” value in the series on hEPO mRNA was found to be 1.91E+05 mIU/mL.

`CCCCCCCCC(CC)OC(=O)CCCCCCCN(CCCCCCCC(=O)OC(CCCCCCCC)CCCCCCCC)CCCNc1c(Cl)c(=O)n(C)n(C)c1=O` (stereo not shown) [Compound 6, Heptadecan-9-yl 8-((3-((5-chloro-1,2-dimethyl-3,6-dioxo-1,2,3,6-tetrahydropyridazin-4-yl)amino)propyl)(8-oxo-8-(undecan-3-yloxy)octyl)amino)octanoate]: in series [1], the “LogIC50 (pKa)” value came out at 6.00. In addition, the “Relative % Area Bound by LNP” value in series [2] is 0%. Moreover, in series [3], the “% EE (ribogreen)” value worked out at 97.9%. For the same compound, in series [5], the PDI stood at 0.088 and the “Size (nm)” value is listed as 68.4 nm. Also, the “Avg. [hEPO] mIU/mL” value in the series on hEPO mRNA is 8.12E+04 mIU/mL.

Take `CCCCCCCCC(CC)OC(=O)CCCCCCCN(CCCCCCCC(=O)OC(CCCCCCCC)CCCCCCCC)CCCN/C=C1/NC(=O)NC1=O` (stereo not shown) [Compound 52]: the “% EE (ribogreen)” value in series [3] came to 98.2%. Moreover, in series [5], the PDI was 0.22 and the “Size (nm)” value was found to be 53.7 nm.

With `CCCCCCCCC(CC)OC(=O)CCCCCCCN(CCCCCCCC(=O)OC(CCCCCCCC)CCCCCCCC)CCCNC(=O)CC(=O)NC` (stereo not shown) [Compound 17, Heptadecan-9-yl 8-({3-[2-(methylcarbamoyl)acetamido]propyl}[8-oxo-8-(undecan-3-yloxy)octyl]amino)octanoate], the “LogIC50 (pKa)” value in series [1] is given as 7.23. Further, in series [2], the “Relative % Area Bound by LNP” value turned out to be 37.96%. In addition, the “% EE (ribogreen)” value in series [3] is reported as 98.4%. Also, in series [5], the PDI is recorded as 0.178 and the “Size (nm)” value is 80.8 nm. Moreover, in the series on hEPO mRNA, the “Avg. [hEPO] mIU/mL” value stood at 7.95E+04 mIU/mL.

Regarding `CCCCCCCCC(CC)OC(=O)CCCCCCCN(CCCCCCCC(=O)OC(CCCCCCCC)CCCCCCCC)CCCNC1=NS(=O)(=O)N=C1NC` (stereo not shown) [Compound 2, Heptadecan-9-yl 8-((3-((4-(methylamino)-1,1-dioxido-1,2,5-thiadiazol-3-yl)amino)propyl)(8-oxo-8-(undecan-3-yloxy)octyl)amino)octanoate], the “LogIC50 (pKa)” value in series [1] came out at 7.65. Moreover, the “Relative % Area Bound by LNP” value in series [2] was determined as 21.86%. Besides, in series [3], the “% EE (ribogreen)” value is 95.1%. In addition, in series [5], the PDI is 0.104 and the “Size (nm)” value is given as 60.8 nm. Moreover, the “Avg. [hEPO] mIU/mL” value in the series on hEPO mRNA was found to be 6.57E+04 mIU/mL.

`CCCCCCCCC(CC)OC(=O)CCCCCCCN(CCCCCCCC(=O)OC(CCCCCCCC)CCCCCCCC)CCCn1ccc2cc([N+](=O)[O-])ccc21` (stereo not shown) [Compound 48, Heptadecan-9-yl 8-((3-(5-nitro-1H-indol-1-yl)propyl)(8-oxo-8-(undecan-3-yloxy)octyl)amino)octanoate]: in series [1], the “LogIC50 (pKa)” value turned out to be 6.41. In addition, the “Relative % Area Bound by LNP” value in series [2] came to 0%. The “% EE (ribogreen)” value in series [3] was −11.2%. Further, in series [5], the PDI came to 0.196 and the “Size (nm)” value amounted to 54.3 nm. Also, the “Avg. [hEPO] mIU/mL” value in the series on hEPO mRNA is listed as 0 mIU/mL.
